Source: PubChem BioAssay (NCI)
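Grown in 96-well plates, cells were treated for 48 hours with each compound at five concentrations. Insufficient inhibition: endpoint recorded as highest concentration tested. TGI denotes the concentration required for complete inhibition of growth.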

Legend:
Test in all cases: DTP human tumour cell line panel, 48 h
CAKI-1 renal = test system: CAKI-1 renal
786-0 renal = test system: 786-0 renal
CCRF-CEM leukemia = test system: CCRF-CEM leukemia
ACHN renal = test system: ACHN renal
SK-MEL-5 melanoma = test system: SK-MEL-5 melanoma
SF-539 CNS = test system: SF-539 CNS
UACC-257 melanoma = test system: UACC-257 melanoma
UACC-62 melanoma = test system: UACC-62 melanoma
SF-268 CNS = test system: SF-268 CNS
NCI-H226 lung = test system: NCI-H226 lung
SK-MEL-28 melanoma = test system: SK-MEL-28 melanoma
A549 NSCLC = test system: A549 NSCLC
IGROV1 ovarian = test system: IGROV1 ovarian
NCI-H460 lung = test system: NCI-H460 lung
OVCAR-8 ovarian = test system: OVCAR-8 ovarian
PC-3 prostate = test system: PC-3 prostate
HS 578T breast = test system: HS 578T breast
DU-145 prostate = test system: DU-145 prostate
T-47D breast = test system: T-47D breast

Row | Compound | TGI (CAKI-1 renal) | TGI (786-0 renal) | TGI (CCRF-CEM leukemia) | TGI (ACHN renal) | TGI (SK-MEL-5 melanoma) | TGI (SF-539 CNS) | TGI (UACC-257 melanoma) | TGI (UACC-62 melanoma) | TGI (SF-268 CNS) | TGI (NCI-H226 lung) | TGI (SK-MEL-28 melanoma) | TGI (A549 NSCLC) | TGI (IGROV1 ovarian) | TGI (NCI-H460 lung) | TGI (OVCAR-8 ovarian) | TGI (PC-3 prostate) | TGI (HS 578T breast) | TGI (DU-145 prostate) | TGI (T-47D breast)
1 | N#Cc1ccc(C(C2C(=O)NC(=O)NC2=O)C2C(=O)NC(=O)NC2=O)cc1 | > 100 µM | > 100 µM | > 100 µM | > 100 µM | > 100 µM | > 100 µM | > 100 µM | > 100 µM | > 100 µM | > 100 µM | > 100 µM | > 100 µM | > 100 µM | > 100 µM | > 100 µM | – | – | – | –
2 | O=C1CCCC2=C1CC1=C(CCCC1=O)N2c1ccc([N+](=O)[O-])cc1 | > 100 µM | > 100 µM | > 100 µM | > 100 µM | > 100 µM | > 100 µM | – | > 100 µM | > 100 µM | > 100 µM | > 100 µM | > 100 µM | > 100 µM | > 100 µM | > 100 µM | > 100 µM | > 100 µM | – | –
3 | O=C(Cc1ccccc1)N/N=C(/c1nc2ccc([N+](=O)[O-])cc2[nH]c1=O)C(O)c1ccc(C(O)/C(=N/NC(=O)Cc2ccccc2)c2nc3ccc([N+](=O)[O-])cc3[nH]c2=O)cc1 (stereo unspecified) | > 100 µM | > 100 µM | > 100 µM | > 100 µM | – | > 100 µM | > 100 µM | > 100 µM | > 100 µM | > 100 µM | > 100 µM | > 100 µM | > 100 µM | – | > 100 µM | – | – | – | –
4 | O=C1C=CC(=O)c2cc(Sc3ccccc3)c(=O)c(Sc3ccccc3)cc21 | > 100 µM | > 100 µM | 60.9 µM | 36 µM | > 100 µM | > 100 µM | > 100 µM | 81.6 µM | > 100 µM | > 100 µM | > 100 µM | > 100 µM | > 100 µM | > 100 µM | > 100 µM | – | – | – | –
5 | COc1ccc(NS(=O)c2c(C)cc(C)cc2C)cc1 (stereo unspecified) | – | > 100 µM | > 100 µM | > 100 µM | 92.1 µM | 53.3 µM | > 100 µM | > 100 µM | > 100 µM | > 100 µM | > 100 µM | > 100 µM | > 100 µM | > 100 µM | > 100 µM | – | > 100 µM | > 100 µM | > 100 µM
6 | CC(=O)SC(SC(C)=O)SC(C)=O | – | > 100 µM | 81 µM | > 100 µM | > 100 µM | > 100 µM | > 100 µM | > 100 µM | > 100 µM | > 100 µM | > 100 µM | > 100 µM | > 100 µM | > 100 µM | > 100 µM | – | – | – | –
7 | CN(C)CC1CCCCCCCCCCCCC(CN(C)C)C1=O (stereo unspecified) | 26.3 µM | 21.7 µM | – | 29.9 µM | 27.8 µM | 28.7 µM | 29.9 µM | 26.1 µM | 26 µM | 23.9 µM | 26.6 µM | 29.6 µM | 33.1 µM | 27.6 µM | 22.4 µM | – | – | – | –
8 | CCCCN(CCCC)CC(C(=O)Nc1ccc([N+](=O)[O-])cc1[N+](=O)[O-])/C(C)=N\NC(=O)C[N+](C)(C)C (stereo unspecified) | > 100 µM | > 100 µM | > 100 µM | > 100 µM | > 100 µM | > 100 µM | > 100 µM | > 100 µM | > 100 µM | > 100 µM | > 100 µM | > 100 µM | > 100 µM | > 100 µM | > 100 µM | – | – | – | –
9 | COC(=O)[C@H](COC(C)(C)C)NC(=O)N[C@H](C)c1ccccc1 | > 100 µM | > 100 µM | > 100 µM | > 100 µM | > 100 µM | > 100 µM | > 100 µM | > 100 µM | > 100 µM | > 100 µM | > 100 µM | > 100 µM | > 100 µM | > 100 µM | > 100 µM | > 100 µM | > 100 µM | > 100 µM | –
10 | CC(=O)Oc1c(Br)ccc2cc(C(Br)Br)c(C(=O)c3ccccc3)nc12 | 12.9 µM | 46.9 µM | – | 44.3 µM | 38.7 µM | 42.3 µM | 8.87 µM | 39.4 µM | 53.5 µM | 40.2 µM | 36.1 µM | 43.4 µM | 76.5 µM | 44.4 µM | 53 µM | – | – | – | –
11 | COC(=O)CC(CNC(=O)OCc1ccccc1)OCc1ccc(OC)cc1 (stereo unspecified) | > 100 µM | > 100 µM | > 100 µM | > 100 µM | > 100 µM | > 100 µM | > 100 µM | > 100 µM | – | > 100 µM | > 100 µM | > 100 µM | > 100 µM | > 100 µM | > 100 µM | > 100 µM | – | > 100 µM | –
12 | COC1=CC(=O)c2c(cc3c(c2O)-c2c(OC)cc4cc5c(c(O)c4c2OC(=O)CC(C)(O)C3)C(=O)CC(C)(O)C5)C1=O (stereo unspecified) | 5.87 µM | 7.72 µM | 6.59 µM | 8.35 µM | 0.606 µM | 3.67 µM | 5.34 µM | 2.57 µM | 9.26 µM | 4.08 µM | 4.36 µM | 10.7 µM | 3.97 µM | 5.24 µM | 6.49 µM | – | – | – | –
13 | CN(C)CCN(C)C(=O)C1CCCN1C(=O)OCc1ccccc1 (stereo unspecified) | – | > 100 µM | 48.7 µM | > 100 µM | > 100 µM | > 100 µM | > 100 µM | > 100 µM | > 100 µM | > 100 µM | > 100 µM | > 100 µM | > 100 µM | > 100 µM | > 100 µM | – | – | – | –
14 | CC1CCC2CC1NC(=O)CCOCCC(=O)NC2(C)C (stereo unspecified) | – | > 100 µM | > 100 µM | – | > 100 µM | > 100 µM | > 100 µM | > 100 µM | > 100 µM | – | > 100 µM | > 100 µM | > 100 µM | > 100 µM | > 100 µM | > 100 µM | – | > 100 µM | > 100 µM
